Reference: patent US20240122180A1, “FUNGICIDAL HALOMETHYL KETONES AND HYDRATES AND THEIR MIXTURES” (FMC Corporation, priority 2020, published 2024)

Experiments:
[1] = tested on: Phakopsora pachyrhizi (the causal agent of Asian soybean rust); experiment: Test A: preventive spray on soybean seedlings, visual disease rating (100 = 100% control; * 50 ppm, ** 10 ppm, *** 250 ppm); type: in vivo; conditions: 100 = 100% disease control
Outline: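 Preventive test: one day after spraying compound (acetone/water suspension, 250 ppm PEG400), seedlings received rust spore inoculum, 24 h in saturated air then 8 days in growth chamber, both at 22 °C. Disease control scored visually, 100 = complete, 0 = none, relative to untreated controls.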

[2] = tested on: Puccinia recondita f. sp. tritici (the causal agent of wheat leaf rust); experiment: Test B: preventive spray on wheat seedlings, disease rating (100 = 100% control; * 50 ppm, ** 10 ppm, *** 250 ppm); type: in vivo; conditions: 100 = 100% disease control
Outline: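 Preventive test: Puccinia recondita f. sp. tritici spores were inoculated one day after run-off spraying of wheat seedlings with test suspension (acetone/water 50/50, 250 ppm PEG400). After 24 h in saturated air and 6 days in a growth chamber, both at 20° C, control was scored 0–100 versus untreated plants.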

[3] = 10 ppm test suspension, soybean seedlings
[4] = 10 ppm test suspension, wheat seedlings
[5] = 10 ppm test suspension, 0 = no control
[6] = Phakopsora pachyrhizi, 10 ppm test suspension, 0 = no control
[7] = Puccinia recondita, 10 ppm test suspension, 0 = no control
[8] = 50 ppm test suspension, 0 = no control

SMILES	Test A disease control rating [1, 3]	Test B disease control rating [2, 4]	also measured
CCOC(=O)c1cnn(Cc2ccc(OCC(O)(NO)C(F)(F)F)cc2)c1 (stereo not drawn) [compound 10]	100%	86%	–
CCO/C(=C\Oc1ccc(Cn2cncc2C(=O)OC)cc1)C(F)(F)F [compound 85]	89%	0%	–
CCO/C(=C\Oc1ccc(Cn2c(=O)oc3ccccc32)cc1)C(F)(F)F [compound 226]	0%	0%	–
CCO/C(=C\Oc1ccc(CS(=O)(=O)CC)cc1)C(F)(F)F [compound 62]	0%	0%	–
CCO/C(=C\Oc1cccc(Cn2cc(C(=O)OCCOC(F)(F)F)cn2)c1)C(F)(F)F [compound 352]	–	–	Test A disease control rating [1, 5]: 100%; Test B disease control rating [2, 5]: 0%
FC(F)(F)C1(COc2ccc(Oc3ccccc3)cc2)OCCO1 [compound 191]	0%	0%	–
C=CCNC(=O)c1ccc(O/C=C(\OCC)C(F)(F)F)cc1 [compound 103]	0%	0%	–
CCOC(=O)c1cnn(Cc2ccc(F)c(O/C=C(\OCC)C(F)(F)F)c2)c1 [compound 418]	–	–	Test A disease control rating [1, 5]: 0%; Test B disease control rating [2, 5]: 0%
CCCOC(=O)c1ccn(Cc2ccc(OC=C(OCC)C(F)(F)F)cc2)n1 [compound 292]	–	–	Test A disease control rating [1, 5]: 100%; Test B disease control rating [2, 5]: 0%
CCO/C(=C\Oc1ccc(CNS(=O)(=O)CC)cc1)C(F)(F)F [compound 149]	0%	0%	–
CCO/C(=C\Oc1ccc(Cn2cc(C(F)(F)F)cn2)cc1)C(F)(F)F [compound 182]	0%	0%	–
O=C(OCc1ccc(Cl)c(Cl)c1)c1cnn(Cc2ccc(OCC(O)(O)C(F)(F)F)cc2)c1 [compound 49]	0%	86%	–
CCO/C(=C\Oc1ccc(C=O)cc1)C(F)(F)F [compound 148]	0%	0%	–
CCOC(=O)NCc1ccc(O/C=C(\OCC)C(F)(F)F)cc1 [compound 111]	0%	0%	–
CCOC(=O)c1cnn(CCc2cccc(OCC(O)(O)C(F)(F)F)c2)c1 [compound 346]	–	–	pest or weed control at 10 ppm [1, 6]: 0%; pest or weed control at 10 ppm [2, 7]: 0%
O=C(OCC1CCCCC1)c1cnn(Cc2ccc(OCC3(C(F)(F)F)OCCO3)cc2)c1 [compound 272]	–	–	Test A disease control rating [1, 5]: 100%; Test B disease control rating [2, 5]: 0%
O=C(OCC(F)(F)C(F)(F)F)c1cnn(Cc2ccc(OCC(O)(O)C(F)(F)F)cc2)c1 [compound 46]	64%	85%	–
O=C(OCc1ccc(Cl)c(Cl)c1)c1cnn(Cc2ccc(OCC3(C(F)(F)F)OCCO3)cc2)c1 [compound 17]	100%	0%	–
O=C(OCc1cccnc1)c1cnn(Cc2ccc(OCC3(C(F)(F)F)OCCO3)cc2)c1 [compound 200]	100%	0%	–
CCOC(=O)c1ccn(Cc2cc(OC)cc(O/C=C(\OCC)C(F)(F)F)c2)n1 [compound 378]	–	–	Test A disease control rating [1, 5]: 0%; Test B disease control rating [2, 5]: 0%
CCOC(=O)c1cnn(Cc2ccc(O/C=C(\OC)C(F)(F)F)cc2)c1 [compound 53]	–	–	Test A disease control rating ([1]; 50 ppm test suspension, soybean seedlings): 100%; Test B disease control rating ([2]; 50 ppm test suspension, wheat seedlings): 67%
CCOC(=O)c1cn(Cc2cccc(O/C=C(\OCC)C(F)(F)F)c2)cn1 [compound 446]	–	–	pest or weed control at 10 ppm [1, 6]: 98%; pest or weed control at 10 ppm [2, 7]: 0%
CCOC(=O)c1ccnn1Cc1ccc(OC)c(O/C=C(\OCC)C(F)(F)F)c1 [compound 463]	–	–	Test A disease control rating [1, 5]: 0%; Test B disease control rating [2, 5]: 0%
CCO/C(=C\Oc1ccc(Cn2ccc(C(=O)OC(C)C)n2)cc1)C(F)(F)F [compound 327]	–	–	Test A disease control rating [1, 5]: 100%; Test B disease control rating [2, 5]: 0%

SMILES	Test A disease control rating [1, 3]	Test B disease control rating [2, 4]	also measured
C=C(C)COC(=O)c1ccn(Cc2ccc(O/C=C(\OCC)C(F)(F)F)cc2)n1 [compound 358]	–	–	Test A disease control rating [1, 5]: 100%; Test B disease control rating [2, 5]: 0%
CCOC(=COc1ccc([N+](=O)[O-])cc1)C(F)(F)F [compound 279]	–	–	Test A disease control rating [1, 8]: 0%; Test B disease control rating [2, 8]: 0%
O=C(NCC(F)(F)F)c1cnc(Cc2ccc(OCC3(C(F)(F)F)OCCO3)cc2)s1 [compound 275]	–	–	Test A disease control rating [1, 5]: 0%; Test B disease control rating [2, 5]: 0%
COCCNC(=O)c1csc(Cc2ccc(OCC(O)(O)C(F)(F)F)cc2)n1 [Compound 223]	75%	0%	–
CC(=O)COC(=O)c1cnn(Cc2ccc(OCC3(C(F)(F)F)OCCO3)cc2)c1 [compound 169]	100%	0%	–
CC(C)COC(=O)NCc1ccc(OCC2(C(F)(F)F)OCCO2)cc1 [compound 112]	0%	0%	–
CCO/C(=C\Oc1cccc(Cn2cc(C(=O)OCCC(C)C)cn2)c1)C(F)(F)F [compound 350]	–	–	Test A disease control rating [1, 5]: 100%; Test B disease control rating [2, 5]: 0%
CCOC(=O)c1csc(Cc2ccc(OCC(O)(O)C(F)(F)F)cc2)n1 [Compound 136]	98%	83%	–
CCO/C(=C\Oc1ccc(Cn2cc(C(=O)OC(C)C)cn2)cc1)C(F)(F)F [compound 139]	100%	0%	–
O=C(OCC(F)(F)F)c1cnn(Cc2ccc(OCC(O)(O)C(F)(F)F)cc2)c1 [compound 45]	87%	85%	–
CCOC(=O)C=CCOc1ccc(O/C=C(\OCC)C(F)(F)F)cc1 [compound 96]	13%	0%	–
CCOC(=O)c1cnn(Cc2ccc(OCC(O)(O)C(F)(F)F)cc2)c1 [compound 227]	99%	55%	–
CCO/C(=C\Oc1ccc(C(=O)NC)cc1)C(F)(F)F [compound 105]	0%	68%	–
CCOC(=O)c1csc(Cc2cccc(O/C=C(\OCC)C(F)(F)F)c2)n1 [compound 370]	–	–	Test A disease control rating [1, 5]: 0%; Test B disease control rating [2, 5]: 0%
OC(O)(CCc1ccc(Cn2ccc3ccccc32)cc1)C(F)(F)F [compound 30]	0%	0%	–
O=C(OCc1ccncc1)c1cnn(Cc2ccc(OCC3(C(F)(F)F)OCCO3)cc2)c1 [compound 201]	100%	0%	–
CCOC(=O)c1cnn(COc2cccc(O/C=C(\OCC)C(F)(F)F)c2)c1 [compound 321]	–	–	pest or weed control at 10 ppm [1, 6]: 100%; pest or weed control at 10 ppm [2, 7]: 0%
CCO/C(=C\Oc1ccc(CNC(=O)C(C)C)cc1)C(F)(F)F [compound 210]	0%	0%	–
C=CCOC(=O)c1ccc(O/C=C(\OCC)C(F)(F)F)cc1 [compound 74]	0%	0%	–
CCO/C(=C\Oc1ccc(Cn2cc(C(=O)OC(C)(C)C)cn2)cc1)C(F)(F)F [compound 89]	0%	0%	–
CCCCOC(=O)c1cnn(Cc2ccc(OCC3(C(F)(F)F)OCCO3)cc2)c1 [compound 125]	100%	0%	–
CCOC(=O)c1cnn(Cc2ccc(OCC3(C(F)(F)F)NCCO3)cc2)c1 (stereo not drawn) [compound 21]	84%	23%	–
OC(O)(COc1cccc(CCl)c1)C(F)(F)F [compound 423]	–	–	pest or weed control at 50 ppm ([1]; Phakopsora pachyrhizi, 50 ppm test suspension, 0 = no control): 87%; pest or weed control at 50 ppm ([2]; Puccinia recondita, 50 ppm test suspension, 0 = no control): 80%
O=C(NCC1CC1)c1csc(Cc2ccc(OCC(O)(O)C(F)(F)F)cc2)n1 [Compound 69]	98%	96%	–
